The test system of assay [1] is HL60 cells with SC-derived ECs. Briefly: Leukocyte-endothelial adhesion assay. The format is cell-based, human. The settings on record: SC-derived ECs stimulated, 1 nM. On the procedure:
FIG. 16: Leukocyte-endothelial adhesion assay. Activated endothelial cells present adhesion molecules for the recruitment leukocytes. The response to 1 nM TNFα was studied by co-cultivating Calcein-stained HL60 cells with SC-derived ECs. Adhesion of HL60 cells to endothelial cells was quantified by measuring the fluorescence intensity.
2×10^4 Stem Cell-derived endothelial cells/well were seeded onto 96-well plates and cultured for 2 days in EGM-2 medium (Lonza) until confluence. Media was changed with EGM-2 medium supplemented with 1 nM TNFα (R&D Systems). SC-derived ECs were TNFα-stimulated for 4 hours. Thereafter 1.5×10^5 Calcein-labeled HL60 cells were added to each 96 well. After an incubation of one hour medium was removed and Sc-ECs were PBS-washed. Lyse the plate with 1% NP-40 detergent solution for 15 minutes. Supernatants were transferred into optiplates and fluorescence measured in a microplate reader.
To determine whether the differentiation system generates bona fide ECs, we challenged the SC-derived ECs with proinflammatory cytokines and analyzed for an activated expression of effectors of immune cell migration. […] We further confirmed by flow cytometry the presence of ICAM1 and E-SELECTIN upon TNF-α as well as […] stimulation (FIG. 16). HLA-ABC expression served as control to analyze a general und cell type unspecific response to proinflammatory cytokines. […]

Another assay concerns ICAM1. Briefly: Pro-inflammatory cytokine response assay, cell-based ELISA. The conditions noted are these: 1 nM, SC-derived ECs. On the set-up: species or system human. Here is the method: FIG. 15A: Pro-inflammatory cytokine response assay. SC-derived ECs upregulate the expression of the adhesion molecule ICAM1 upon pro-inflammatory cytokine administration. Cell-based ELISA was used to measure the activation of SC-derived endothelial cells in response to 1 nM TNFα.
(§1) 20 000 Stem Cell-derived endothelial cells/well were seeded onto 96-well plates and cultured for 2 days in EGM-2 medium (Lonza) until confluence. Media was changed with EGM-2 medium supplemented with 1 nM TNFα (R&D Systems). After an incubation of 24 hours SC-derived ECs were briefly PBS-washed and PFA-fixed Primary antibodies for human anti-ICAM and anti-E-Selectin were purchased from R&D Systems. An anti-mouseIgG/biotinylated (Amersham) as secondary antibody and a Streptavidin/Peroxidase complex (Amersham) were used. Luminescence was quantified in a microplate reader.

For a further assay, the system named is E-SELECTIN
The assay is described as above. More on the design: species or system human. The conditions noted are these: 1 nM, SC-derived ECs. Here is the method: FIG. 15B: Pro-inflammatory cytokine response assay. SC-derived ECs upregulate the expression of the adhesion molecule E-SELECTIN upon pro-inflammatory cytokine administration. Cell-based ELISA was used to measure the activation of SC-derived endothelial cells in response to 1 nM TNFα.
as §1

TNFα: the “adhesion / recruitment of HL60 leukocytes” value in assay [1] is listed as “significantly enhanced”. Moreover, in the assay with ICAM1, the ICAM1 expression entry was “significantly upregulated”. For the same substance, the E-SELECTIN expression result with E-SELECTIN is “significantly upregulated”.

(Values after patent US20200182861A1, “METHOD FOR DIFFERENTIATION OF PLURIPOTENT STEM CELLS INTO VASCULAR BED CELLS” (Hoffmann-La Roche Inc., priority 2011, published 2020).)
